Measurements reported in the NIST ThermoML archive (doi:10.1021/je800981d).
Values joined by “and” are separate entries in the source; they are usually repeats but may differ in a detail not shown here. Identical values can stand only once. Numbers after ± are expanded uncertainties.

How the values were obtained:
[1] = Liquid
[2] = refractive index (Na D-line) (dimensionless); details: 101.33 kPa, Liquid, Standard Abbe refractometry

CCOS(=O)(=O)[O-].CC[n+]1ccccc1 [1-ethylpyridinium ethyl sulfate]
[1]
Details	mass density, 101.33 kPa [kg/m3]	speed of sound, 101.33 kPa [m/s]	viscosity, 101 kPa [mPa·s]	viscosity, 101.33 kPa [mPa·s]
298.15 K	1252 ± 1.1	1711 ± 3	–	126.3 ± 8
303.15 K	1248.7 ± 1.1	1699 ± 3	–	93 ± 4
308.15 K	1245.4 ± 1.1	1687 ± 3	–	72.1 ± 1.9
313.15 K	1242.1 ± 1.1	1676 ± 3	–	57.6 ± 0.7
318.15 K	1238.8 ± 1.1	1664 ± 3	–	46.4 ± 0.8
323.15 K	1235.6 ± 1.1	1653 ± 3	–	38.6 ± 0.73
328.15 K	1232.3 ± 1	1641 ± 3	38.6 ± 0.73	32.53 ± 0.65
333.15 K	1229.1 ± 1	1630 ± 3	–	27.78 ± 0.6
338.15 K	1225.9 ± 1	1619 ± 3	–	23.9 ± 0.56
343.15 K	1222.7 ± 1	1608 ± 3	–	20.71 ± 0.52

[2]
Details	refractive index
298.15 K	1.50525 ± 0.00045 and 1.50252 ± 0.0007
303.15 K	1.50394 ± 0.00046
308.15 K	1.50258 ± 0.00046
313.15 K	1.5012 ± 0.00046
318.15 K	1.49976 ± 0.00046
323.15 K	1.4985 ± 0.00045
328.15 K	1.4972 ± 0.00045
333.15 K	1.49587 ± 0.00045
338.15 K	1.49454 ± 0.00046
343.15 K	1.49309 ± 0.00047
